Positions of bridges follow the written chain, without caps; N, C: chain ends. Non-standard residues stand in square brackets, D forms with d. Residues, ends and D or L forms follow the SMILES beside them. *: point of attachment. X1 = CC[C@H](C)CCCCC(=O)*; Dab = NCC[C@H](N)C(=O)O
What was measured:
[1] = Observed AUC0-12h at steady state (linear-up-log-down method); format: in vivo; settings: human, 46 patients, steady state (day 4), intravenous, plasma, LC-MS/MS, mean ± spread
Method: (§1) Blood samples were obtained after 3 days of therapy. On day 4, one blood sample (2 ml, C0h) was collected immediately at pre-dose, and five to seven blood samples (mainly C0.5h, C1h, C1.5h, C2h, C4h, C6h, and C8h) were collected at pre-next dose into EDTA tubes for each patient. To calculate AUC0–12h, C0h was regarded as C12h for those who hid not obtained C0h. All samples were centrifuged at 3,500×g for 10 min. The supernatant was collected and stored at −80°C until analysis.
Plasma concentrations of polymyxin B were determined using liquid chromatography-tandem mass spectrometry (LC-MS/MS) in the hospital laboratory. The method was previously described by our group ([Wang et al., 2020]). […] The upper limit of quantification was extended to 20 µg/ml for polymyxin B1 and 5.0 µg/ml for polymyxin B2 after four-fold dilution. For precision and accuracy, the intra- and inter-day imprecision of polymyxin B1 and B2 was less than 13.93%, and the inaccuracy ranged from −10.87 to 11.13%. […]
The AUC0-12h of polymyxin B was calculated by the linear-up-log-down method. […] The observed and predicted AUC0-12h were analyzed using the Pearson correlation coefficient (r). […] The determination coefficient (r^2) evaluated the regression level of the equation. […]

[2] = cited from earlier work
From the text: To date, few studies have been conducted on population PK of polymyxin B ([Kwa et al., 2008]; [Sandri et al., 2013]; [Kubin et al., 2018]; [Manchandani et al., 2018]; [Miglis et al., 2018]). To our best knowledge, this study included the largest samples and most covariates from acutely-ill patients, aimed at evaluating the population PK of polymyxin B and identifying potential factors influencing the PK variability. The result indicated a two-compartment model adequately described population PK of polymyxin B in Chinese patients. Although there were studies performed using the one-compartment ... || The impact of clinical variables on population PK models of polymyxin B was always inconsistent, especially the influence of body weight and CrCL on polymyxin B clearance. […] With a low correlation coefficient (Supplementary Figure 1), this study found CrCL was a statistical covariate of polymyxin B clearance (Equ. 6), which was in agr ...

[3] = Population pharmacokinetic analysis of polymyxin B in Chinese patients (two-compartment model, Phoenix NLME); format: in vivo, human
Method: Patients who were ≥ 18 years of age, received intravenous polymyxin B (sulfate; polymyxin B injection, Shanghai First Biochemical Pharmaceutical Co., Ltd., China) for ≥ 72 hours, and were documented MDR Gram-negative bacterial infections were included. Patients with renal replacement therapy were excluded. Demographic characteristics (age, sex, and body weight), polymyxin B therapy, and laboratory data before polymyxin B TDM were collected from electronic medical records, including alanine aminotransferase (ALT), aspartate aminotransferase (AST), glutamyl transpeptidase (GGT), alkaline phosphatase (ALP), urea nitrogen, serum creatinine (Scr), serum uric acid, serum proteins, serum albumin, total bilirubin (TBIL), direct bilirubin (DBIL), and creatinine clearance (CrCL). CrCL was calculated using the Cockcroft-Gault equation with body weight ([Janmahasatian et al., 2005]).
According to the Chinese package insert, the maintenance dose of polymyxin B was 50 to 100 million units ([…]) twice daily. The loading dose was 100 to 150 million units in clinical practice. The recommended infusion time was one hour but could be lengthened as needed. Polymyxin B treatment including dose, infusion time, and duration of therapy depended on the medical teams.
as §1
Plasma concentrations of polymyxin B were determined using liquid chromatography-tandem mass spectrometry (LC-MS/MS) in the hospital laboratory. The method was previously described by our group ([Wang et al., 2020]). […] The upper limit of quantification was extended to 20 µg/ml for polymyxin B1 and 5.0 µg/ml for polymyxin B2 after four-fold dilution. For precision and accuracy, the intra- and inter-day imprecision of polymyxin B1 and B2 was less than 13.93%, and the inaccuracy ranged from −10.87 to 11.13%. Since polymyxin B1 and B2 had similar structures, molecular weight, pharmacological activities, and pharmacokinetic characteristics, the plasma concentration of polymyxin B was summed to derive the total polymyxin B1 and B2 concentrations ([Tam et al., 2011]; [Manchandani et al., 2016a]).
Based on a previously published study ([Avedissian et al., 2019]), the PK parameters were determined by one- and two-compartmental models performed using Phoenix® NLME software (v7.0, Pharsight, Mountain View, CA, USA). Initial PK parameters were estimated by the Naive-pooled model. PK models were estimated by the first-order conditional
where Pi is the PK parameters of the i^th patient, θ is the population PK pharmacokinetic parameters, and ηi is a normally distributed random variable with a mean of 0 and a variance of ω^2. Intra-individual variability (residual error) is described using additive (Cobs = Cpred + ϵ), proportional [Cobs = Cpred × (1+ ϵ)] or mixed (additive + proportional) models, where Cobs and Cpred are the observed and predicted concentrations, and ϵ is an error variable with a mean of 0 and a variance of σ^2. Model assessment criteria included precision of parameter estimates (standard error), goodness-of-fit plots, and likelihood ratio test (−2LL). For the one-compartment model, basic PK parameters were the volume of central compartment distribution (V) and central compartment clearance (Cl). For the two-compartment model, there were two additional parameters as the volume of peripheral compartment distribution (V2) and inter-compartmental clearance (Q). […]

[4] = two-compartment population PK, 46 patients, intravenous, steady state

In the case of CC[C@H](C)CCCCC(=O)N[C@@H](CCN)C(=O)N[C@H](C(=O)N[C@@H](CCN)C(=O)N[C@H]1CCNC(=O)[C@H]([C@@H](C)O)NC(=O)[C@H](CCN)NC(=O)[C@H](CCN)NC(=O)[C@H](CC(C)C)NC(=O)[C@@H](Cc2ccccc2)NC(=O)[C@H](CCN)NC1=O)[C@@H](C)O [polymyxin B, Polymyxin B] (X1-[Dab]T[Dab][Dab][Dab][dF]L[Dab][Dab]T; lactam 4-C), the AUC(0-t) [1] is given as 43600 ± 27700 ng·h/mL, the “clearance value, renal insufficient group” value ([2]; CrCL < 80 ml/min, P = 0.06 vs normal function group, ref Thamlikitkul et al. (2017)) is given as 2.0 L/h and the “clearance value, normal function group” value ([2]; CrCL ≥ 80 ml/min, ref Thamlikitkul et al. (2017)) is given as 2.5 L/h. For the same compound, the “polymyxin B CL reported previously (range)” value ([2]; earlier population PK studies, ref not given) was 1.87 to 2.5 L/h, the V estimate ([2]; ref Sandri et al. (2013)) was 6.35 L and the “dCldCrCL, bootstrap median” value ([3]; 1,000 bootstrap samples) was 0.357. The “tvCl, bootstrap median” value ([3]; 1,000 bootstrap samples) was 1.771 L/h, the “tvQ, bootstrap median” value ([3]; 1,000 bootstrap samples) was 14.427 L/h and the “tvV2, bootstrap median” value ([3]; 1,000 bootstrap samples) was 12.073 L. For the same compound, the “tvV, bootstrap median” value ([3]; 1,000 bootstrap samples) was 5.960 L, the “tvV, typical value of volume of central compartment distribution (V), final model estimate” value ([3]; two-compartment population PK, 46 adult patients, 331 plasma samples, intravenous, steady state (day 4), LC-MS/MS, sum of polymyxin B1 and B2) was 6.218 L and the “tvQ, typical value of inter-compartmental clearance (Q, Cl2), final model estimate” value [3, 4] was 13.518 L/h. The “tvV2, typical value of volume of peripheral compartment distribution (V2), final model estimate” value [3, 4] was 11.922 L.
